# Measured values published in patent publication US8299267B2, “(3-hydroxy-4-amino-butan-2-yl) -3- (2-thiazol-2-yl-pyrrolidine-1-carbonyl) benzamide derivatives and related compounds as beta-secretase inhibitors for treating” (CoMentis, Inc., priority 2007, dated 2012).
# pIC50, pKi: −log10 of the molar value.
# Experiments:
# [1] = system: Aβ production in Chinese hamster ovary cells that over-express human APP695 with the London and Swedish mutations; assay: Cellular Aβ IC50 determination (Aβ40 sandwich ELISA); assay type: cell-based; conditions: Cricetulus griseus; Aβ40 in CHO cells over-expressing human APP695, 24 h incubation
# Procedure, shortened: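 APP695 (London/Swedish)-overexpressing CHO cells were treated 48 h after seeding with serial dilutions from near 4 μM top concentration (0.4% DMSO) for 24 h at 37 °C. Secreted Aβ40 was quantified by sandwich ELISA relative to controls and fit to a 4-parameter IC50 model.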
# memapsin 2 = memapsin 2 (Homo sapiens, UniProt P56817); assay: Inhibition of memapsin 2 beta-secretase activity toward fluorogenic substrate FS-2; assay type: biochemical; conditions: memapsin 2, pH 4, 37° C., 20 minutes pre-incubation, substrate FS-2; read-out: M2Ki
# Procedure, shortened: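 Memapsin 2 was preincubated with compound 20 min at pH 4, 37 °C, then reacted with fluorogenic substrate FS-2 (MCA-SEVNLDAEFK-DNP), an APP-derived Swedish-variant peptide. Inhibition was followed kinetically by fluorescence.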
# Chain of memapsin 2 (P56817 46-501): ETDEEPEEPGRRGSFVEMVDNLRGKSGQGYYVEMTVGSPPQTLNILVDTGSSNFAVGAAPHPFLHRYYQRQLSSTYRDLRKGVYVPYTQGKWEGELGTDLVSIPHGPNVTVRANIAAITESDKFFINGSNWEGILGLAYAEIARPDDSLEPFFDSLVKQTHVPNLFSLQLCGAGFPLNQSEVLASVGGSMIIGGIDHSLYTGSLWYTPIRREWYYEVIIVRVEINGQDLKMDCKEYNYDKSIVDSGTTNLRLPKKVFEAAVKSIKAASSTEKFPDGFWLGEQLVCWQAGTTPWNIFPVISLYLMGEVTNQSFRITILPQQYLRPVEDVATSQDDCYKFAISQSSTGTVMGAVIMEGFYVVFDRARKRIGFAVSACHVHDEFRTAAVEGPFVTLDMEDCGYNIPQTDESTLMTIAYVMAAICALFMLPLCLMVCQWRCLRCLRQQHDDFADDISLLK
Compound,pIC50 [1],pKi (memapsin 2)
"Cc1coc([C@H]2CCCN2C(=O)c2cc(CF)cc(C(=O)N[C@@H](Cc3ccccc3)[C@H](O)CNCc3cccc(C(F)(F)F)c3)c2)n1 [Compound 82, 3-(fluoromethyl)-N-((2S,3R)-3-hydroxy-1-phenyl-4-(3-(trifluoromethyl)benzylamino)butan-2-yl)-5-((R)-2-(4-methyloxazol-2-yl)pyrrolidine-1-carbonyl)benzamide]",> 6.52,> 7.00
"COc1cc(C(=O)N[C@@H](Cc2ccccc2)[C@H](O)CNCc2cncc(C(C)C)c2)cc(C(=O)N2CCC[C@@H]2c2nc(C)cs2)c1 [Compound 83, N-((2S,3R)-3-hydroxy-4-((5-isopropylpyridin-3-yl)methylamino)-1-phenylbutan-2-yl)-3-methoxy-5-((R)-2-(4-methylthiazol-2-yl)pyrrolidine-1-carbonyl)benzamide]",> 6.52,> 7.00
"Cc1csc([C@H]2CCCN2C(=O)c2cc(C(=O)N[C@@H](Cc3ccccc3)[C@H](O)CNCc3cccc(C(F)(F)F)c3)cc(-c3ccc(F)nc3)n2)n1 [Compound 88, 6′-fluoro-N-((2S,3R)-3-hydroxy-1-phenyl-4-(3-(trifluoromethyl)benzylamino)butan-2-yl)-6-((R)-2-(4-methylthiazol-2-yl)pyrrolidine-1-carbonyl)-2,3′-bipyridine-4-carboxamide]",> 6.52,6.70 to 7.00
"Cc1coc([C@H]2CCCN2C(=O)c2cc(C(=O)N[C@@H](Cc3ccccc3)[C@H](O)CNCc3cncc(C(C)(C)F)c3)cc(-c3ncco3)c2)n1 [Compound 90, N-((2S,3R)-4-((5-(2-fluoropropan-2-yl)pyridin-3-yl)methylamino)-3-hydroxy-1-phenylbutan-2-yl)-3-((R)-2-(4-methyloxazol-2-yl)pyrrolidine-1-carbonyl)-5-(oxazol-2-yl)benzamide]",> 6.52,> 7.00
"Cc1csc([C@H]2CCCN2C(=O)c2cc(C(=O)N[C@@H](Cc3ccccc3)[C@H](O)CNCc3cccc(C(F)(F)F)c3)cc(-c3cccc(Cl)c3)n2)n1 [Compound 91, 2-(3-chlorophenyl)-N-((2S,3R)-3-hydroxy-1-phenyl-4-(3-(trifluoromethyl)benzylamino)butan-2-yl)-6-((R)-2-(4-methylthiazol-2-yl)pyrrolidine-1-carbonyl)isonicotinamide]",6.30 to 6.52,> 7.00
"COc1cc(C(=O)N[C@@H](Cc2ccccc2)[C@H](O)CNCc2cccc(C(F)(F)F)c2)cc(C(=O)N2CCC[C@@H]2c2nc(C)co2)c1 [Compound 93, N-((2S,3R)-3-hydroxy-1-phenyl-4-(3-(trifluoromethyl)benzylamino)butan-2-yl)-3-methoxy-5-((R)-2-(4-methyloxazol-2-yl)pyrrolidine-1-carbonyl)benzamide]",> 6.52,> 7.00
"Cc1coc([C@H]2CCCN2C(=O)c2cc(C(=O)N[C@@H](Cc3ccccc3)[C@H](O)CNCc3cccc(C(F)(F)F)c3)ccn2)n1 [Compound 94, N-((2S,3R)-3-hydroxy-1-phenyl-4-(3-(trifluoromethyl)benzylamino)butan-2-yl)-2-((R)-2-(4-methyloxazol-2-yl)pyrrolidine-1-carbonyl)isonicotinamide]",> 6.52,> 7.00
"Cc1coc([C@H]2CCCN2C(=O)c2cc(CF)cc(C(=O)N[C@@H](Cc3ccccc3)[C@H](O)CNCc3cccc(C(C)(C)C)c3)c2)n1 [Compound 95, N-((2S,3R)-4-(3-tert-butylbenzylamino)-3-hydroxy-1-phenylbutan-2-yl)-3-(fluoromethyl)-5-((R)-2-(4-methyloxazol-2-yl)pyrrolidine-1-carbonyl)benzamide]",> 6.52,> 7.00

# Results, then the molecule that gave them:
pIC50 [1],pKi (memapsin 2),Compound
> 6.52,> 7.00,"Cc1csc([C@H]2CCCN2C(=O)c2cc(C(=O)N[C@@H](Cc3ccccc3)[C@H](O)CNCc3cccc(C(F)(F)F)c3)cc(-n3cccc3)c2)n1 [Compound 80, N-((2S,3R)-3-hydroxy-1-phenyl-4-(3-(trifluoromethyl)benzylamino)butan-2-yl)-3-((R)-2-(4-methylthiazol-2-yl)pyrrolidine-1-carbonyl)-5-(1H-pyrrol-1-yl)benzamide]"
> 6.52,> 7.00,"Cc1csc([C@H]2CCCN2C(=O)c2cc(C(=O)N[C@@H](Cc3ccccc3)[C@H](O)CNCc3cccc(C(F)(F)F)c3)nc(N(C)C)c2)n1 [Compound 81, 6-(dimethylamino)-N-((2S,3R)-3-hydroxy-1-phenyl-4-(3-(trifluoromethyl)benzylamino)butan-2-yl)-4-((R)-2-(4-methylthiazol-2-yl)pyrrolidine-1-carbonyl)picolinamide]"
> 6.52,> 7.00,"Cc1cc(C(=O)N[C@@H](Cc2ccccc2)[C@H](O)CNCc2cccc(C(F)(F)F)c2)cc(C(=O)N2CCC[C@@H]2c2nc(C)co2)n1 [Compound 84, N-((2S,3R)-3-hydroxy-1-phenyl-4-(3-(trifluoromethyl)benzylamino)butan-2-yl)-2-methyl-6-((R)-2-(4-methyloxazol-2-yl)pyrrolidine-1-carbonyl)isonicotinamide]"
> 6.52,> 7.00,"CNc1cc(CNC[C@@H](O)[C@H](Cc2ccccc2)NC(=O)c2cccc(C(=O)N3CCC[C@@H]3c3nc(C)cs3)c2)cc(C(F)(F)F)c1 [Compound 85, N-((2S,3R)-3-hydroxy-4-(3-(methylamino)-5-(trifluoromethyl)benzylamino)-1-phenylbutan-2-yl)-3-((R)-2-(4-methylthiazol-2-yl)pyrrolidine-1-carbonyl)benzamide]"
> 6.52,> 7.00,"Cc1coc([C@H]2CCCN2C(=O)c2cc(C(=O)N[C@@H](Cc3ccccc3)[C@H](O)CNCc3cncc(C(C)C)c3)cc(-c3ncco3)c2)n1 [Compound 86, N-((2S,3R)-3-hydroxy-4-((5-isopropylpyridin-3-yl)methylamino)-1-phenylbutan-2-yl)-3-((R)-2-(4-methyloxazol-2-yl)pyrrolidine-1-carbonyl)-5-(oxazol-2-yl)benzamide]"
> 6.52,> 7.00,"Cc1coc([C@H]2CCCN2C(=O)c2cc(C(=O)N[C@@H](Cc3ccccc3)[C@H](O)CNCc3cccc(C(F)(F)F)c3)cc(-c3ncco3)c2)n1 [Compound 87, N-((2S,3R)-3-hydroxy-1-phenyl-4-(3-(trifluoromethyl)benzylamino)butan-2-yl)-3-((R)-2-(4-methyloxazol-2-yl)pyrrolidine-1-carbonyl)-5-(oxazol-2-yl)benzamide]"
> 6.52,> 7.00,"COc1cc(C(=O)N[C@@H](Cc2ccccc2)[C@H](O)CNCc2cncc(C(C)C)c2)cc(C(=O)N2CCC[C@@H]2c2nc(C)co2)c1 [Compound 89, N-((2S,3R)-3-hydroxy-4-((5-isopropylpyridin-3-yl)methylamino)-1-phenylbutan-2-yl)-3-methoxy-5-((R)-2-(4-methyloxazol-2-yl)pyrrolidine-1-carbonyl)benzamide]"
> 6.52,> 7.00,"Cc1coc([C@H]2CCCN2C(=O)c2cc(C(=O)N[C@@H](Cc3ccccc3)[C@H](O)CNCc3cncc(C(C)C)c3)cc(N(C)C)c2)n1 [Compound 92, 3-(dimethylamino)-N-((2S,3R)-3-hydroxy-4-((5-isopropylpyridin-3-yl)methylamino)-1-phenylbutan-2-yl)-5-((R)-2-(4-methyloxazol-2-yl)pyrrolidine-1-carbonyl)benzamide]"
